Source: US5703050A (Hoechst Aktiengesellschaft, priority 1993, dated 1997)
pIC50: −log10 of the molar value. Read-outs that look alike come from different tables or passages of the source.

Legend:
[1] = system: gel-filtered human platelets; assay: Inhibition of the aggregation of gel-filtered human platelets after ADP or thrombin stimulation; assay type: cell-based; conditions: platelet aggregation
Experimental: (§1) The compounds are tested in particular for their inhibitory effect on blood platelet aggregation and the adhesion of fibrinogen to blood platelets. Gel-filtered blood platelets from human donor blood are used, which are activated with ADP or thrombin.
As a functional test, the inhibition of the aggregation of gel-filtered human platelets is measured after ADP or thrombin stimulation by the compounds according to the invention. The IC50 value of the inhibition is indicated (reference: G. A. Marguerie et al., J. Biol. Chem. 254 (1979), 5357-5363).

[2] = molecular target: T1, fibrinogen receptor (glycoprotein IIb/IIIa) (Homo sapiens, UniProt P05106+P08514); assay: Inhibition of binding of 125I-fibrinogen to its receptor on intact, gel-filtered human platelets; conditions: inhibition of 125I-fibrinogen binding after stimulation with ADP (10 μM), read-out: Ki (μM), ADP-stimulated
T1 construct: its receptor (glycoprotein IIb/IIIa) on intact, gel-filtered human platelets; endogenous in cells; host or cells: gel-filtered platelets from human donor blood, stimulated with ADP (10 uM)
Experimental: as §1
The inhibition of the binding of fibrinogen to its receptor (glycoprotein IIb/IIIa) on intact, gel-filtered human platelets by the compounds according to the invention is tested. The Ki value of the inhibition of binding of 125I-fibrinogen after stimulation with ADP (10 μM) is indicated. (Reference: J. S. Bennett and G. Vilaire, J. Clin. Invest. 64 (1979) 1393-1401; E. Kornecki et al., J. Biol. Chem. 256 (1981), 5695-5701; G. A. Marguerie et al., J. Biol. Chem. 254 (1979) 5357-5363; G. A. Marguerie et al., J. Biol. Chem. 255 (1980) 154-161.)

[3] = ADP stimulation, read-out: ADP-stimulated IC50
[4] = thrombin stimulation, read-out: thrombin-stimulated IC50

T1 sequence (P08514 32-887 limits assumed): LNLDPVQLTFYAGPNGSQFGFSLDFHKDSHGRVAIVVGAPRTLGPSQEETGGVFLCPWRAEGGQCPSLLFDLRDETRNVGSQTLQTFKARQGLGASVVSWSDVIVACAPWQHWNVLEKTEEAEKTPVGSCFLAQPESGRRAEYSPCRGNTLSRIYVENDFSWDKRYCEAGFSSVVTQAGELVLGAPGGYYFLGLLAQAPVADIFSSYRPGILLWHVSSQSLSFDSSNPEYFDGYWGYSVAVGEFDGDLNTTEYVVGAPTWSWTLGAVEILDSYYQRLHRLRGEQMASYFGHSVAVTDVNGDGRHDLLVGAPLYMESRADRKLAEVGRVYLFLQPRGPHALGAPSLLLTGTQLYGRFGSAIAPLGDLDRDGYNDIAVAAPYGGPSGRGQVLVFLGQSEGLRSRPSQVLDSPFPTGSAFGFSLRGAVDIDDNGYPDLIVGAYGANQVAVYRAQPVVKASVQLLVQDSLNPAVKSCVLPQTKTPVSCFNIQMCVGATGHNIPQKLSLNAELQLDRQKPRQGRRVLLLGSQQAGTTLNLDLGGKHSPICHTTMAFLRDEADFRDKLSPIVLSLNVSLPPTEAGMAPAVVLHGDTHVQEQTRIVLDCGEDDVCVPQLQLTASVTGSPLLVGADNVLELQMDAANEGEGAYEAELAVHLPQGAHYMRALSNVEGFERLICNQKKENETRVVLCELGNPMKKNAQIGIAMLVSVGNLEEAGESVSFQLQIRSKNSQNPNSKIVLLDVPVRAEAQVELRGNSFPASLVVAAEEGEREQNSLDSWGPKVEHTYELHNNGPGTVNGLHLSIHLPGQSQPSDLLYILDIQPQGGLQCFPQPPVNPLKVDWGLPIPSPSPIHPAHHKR
T1 sequence (P08514 891-1039 limits assumed): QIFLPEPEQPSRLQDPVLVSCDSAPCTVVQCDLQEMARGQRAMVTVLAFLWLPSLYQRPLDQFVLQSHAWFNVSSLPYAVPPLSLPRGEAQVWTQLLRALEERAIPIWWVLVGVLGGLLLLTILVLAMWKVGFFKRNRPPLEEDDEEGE
T1 sequence (P05106 27-788): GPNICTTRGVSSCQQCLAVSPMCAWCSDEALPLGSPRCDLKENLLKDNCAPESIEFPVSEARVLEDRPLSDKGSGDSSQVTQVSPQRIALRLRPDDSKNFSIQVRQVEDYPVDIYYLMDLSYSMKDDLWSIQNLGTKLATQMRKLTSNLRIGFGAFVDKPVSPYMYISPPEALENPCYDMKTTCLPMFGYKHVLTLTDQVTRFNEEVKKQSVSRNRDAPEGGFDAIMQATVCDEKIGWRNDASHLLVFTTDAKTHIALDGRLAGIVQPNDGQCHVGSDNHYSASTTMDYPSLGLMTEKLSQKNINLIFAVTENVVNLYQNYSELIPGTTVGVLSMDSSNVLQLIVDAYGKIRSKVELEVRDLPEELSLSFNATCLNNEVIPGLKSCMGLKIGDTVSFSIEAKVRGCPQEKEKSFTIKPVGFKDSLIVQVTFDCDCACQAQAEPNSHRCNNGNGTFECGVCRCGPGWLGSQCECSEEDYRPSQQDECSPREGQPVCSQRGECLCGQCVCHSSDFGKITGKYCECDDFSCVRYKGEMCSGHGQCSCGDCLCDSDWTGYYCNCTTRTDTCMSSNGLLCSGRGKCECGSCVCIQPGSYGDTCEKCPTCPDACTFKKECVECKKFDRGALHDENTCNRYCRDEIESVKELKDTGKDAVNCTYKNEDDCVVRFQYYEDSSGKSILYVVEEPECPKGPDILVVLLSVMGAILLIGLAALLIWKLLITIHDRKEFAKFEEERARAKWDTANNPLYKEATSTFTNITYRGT

Molecule	pIC50 [1, 3]	pIC50 [1, 4]	Ki [2] [µM]
3-(3-(3-Aminopropyl)ureido)benzoyl-L-aspartyl-L-phenylglycine [Example 10]	5.07	5.52	
3-((3-(4-(Aminoiminomethyl)phenyl)ureido)acetylamino)-3-phenyl-propionic acid [Example 7]	5.52	5.82	
N=C(N)c1ccc(NC(=O)NCC(=O)N[C@@H](CC(=O)O)C(=O)N[C@H](C(=O)O)c2ccccc2)cc1 [Example 1]	6.82	7.00	0.03
(3-(4-(Aminoiminomethyl)phenyl)ureido)acetyl-L-aspartyl-L-phenylglycine methyl ester trifluoroaetate [Example 6]	6.12	6.52	
(3-(4-(Aminoiminomethyl)phenyl)ureido)acetyl-L-aspartylbenzylamide [Example 8]	5.70	5.70	
